Test results from the NIST ThermoML archive (doi:10.1016/j.jct.2005.05.008).
Numbers after ± are expanded uncertainties.

How the values were obtained:
[1] = 298.15 K; 101.33 kPa; Liquid
[2] = an = ratio of the nth substance listed, in mol/kg; details: 101 kPa, Liquid, Vibrating tube method

CC(=O)N(C)C [N,N-dimethylethanamide]
Details	mass density [kg/m3]
[1]	936.357 ± 0.28

CN(C)C=O [dimethylformamide]
Details	mass density [kg/m3]
[1]	943.792 ± 0.28

CN(C)C=O [dimethylformamide] + CCCC[N+](CCCC)(CCCC)CCCC.[O-][Cl+3]([O-])([O-])[O-]
[2], a2 = 0
Details	mass density [kg/m3]
283.15 K	958.067 ± 0.27
293.15 K	948.553 ± 0.27
298.15 K	943.79 ± 0.27
303.15 K	939.014 ± 0.27
313.15 K	929.43 ± 0.26
323.15 K	919.797 ± 0.26
333.15 K	910.117 ± 0.26

CN(C)C=O [dimethylformamide] + CCC[N+](CCC)(CCC)CCC.[O-][Cl+3]([O-])([O-])[O-]
[2], a2 = 0
Details	mass density [kg/m3]
283.15 K	958.067 ± 0.27
293.15 K	948.553 ± 0.27
298.15 K	943.79 ± 0.27
303.15 K	939.014 ± 0.27
313.15 K	929.43 ± 0.26
323.15 K	919.797 ± 0.26
333.15 K	910.117 ± 0.26

CN(C)C=O [dimethylformamide] + CC[N+](CC)(CC)CC.[O-][Cl+3]([O-])([O-])[O-]
[2], a2 = 0
Details	mass density [kg/m3]
283.15 K	958.067 ± 0.27
293.15 K	948.553 ± 0.27
298.15 K	943.79 ± 0.27
303.15 K	939.014 ± 0.27
313.15 K	929.43 ± 0.26
323.15 K	919.797 ± 0.26
333.15 K	910.117 ± 0.26

CN(C)C=O [dimethylformamide] + C[N+](C)(C)C.[O-][Cl+3]([O-])([O-])[O-]
[2], a2 = 0
Details	mass density [kg/m3]
283.15 K	958.067 ± 0.27
293.15 K	948.553 ± 0.27
298.15 K	943.79 ± 0.27
303.15 K	939.014 ± 0.27
313.15 K	929.43 ± 0.26
323.15 K	919.797 ± 0.26
333.15 K	910.117 ± 0.26

CCCC[N+](CCCC)(CCCC)CCCC.[O-][Cl+3]([O-])([O-])[O-] [tetrabutylammonium perchlorate] + CN(C)C=O
mass density [kg/m3], [2]
Details	a1 = 0.02852	a1 = 0.05393	a1 = 0.07866	a1 = 0.1047	a1 = 0.1431	a1 = 0.1824	a1 = 0.222	a1 = 0.2619
283.15 K	959.148 ± 0.27	960.097 ± 0.27	961.015 ± 0.27	961.969 ± 0.27	963.376 ± 0.27	964.794 ± 0.27	966.232 ± 0.27	967.661 ± 0.27
293.15 K	949.672 ± 0.27	950.653 ± 0.27	951.604 ± 0.27	952.588 ± 0.27	954.042 ± 0.27	955.511 ± 0.27	956.99 ± 0.27	958.466 ± 0.27
298.15 K	944.93 ± 0.27	945.929 ± 0.27	946.892 ± 0.27	947.89 ± 0.27	949.37 ± 0.27	950.86 ± 0.27	952.366 ± 0.27	953.862 ± 0.27
303.15 K	940.173 ± 0.27	941.191 ± 0.27	942.17 ± 0.27	943.187 ± 0.27	944.69 ± 0.27	946.204 ± 0.27	947.732 ± 0.27	949.254 ± 0.27
313.15 K	930.632 ± 0.26	931.686 ± 0.26	932.697 ± 0.26	933.756 ± 0.26	935.303 ± 0.27	936.87 ± 0.27	938.448 ± 0.27	940.016 ± 0.27
323.15 K	921.05 ± 0.26	922.138 ± 0.26	923.191 ± 0.26	924.277 ± 0.26	925.877 ± 0.26	927.496 ± 0.26	929.126 ± 0.26	930.747 ± 0.26
333.15 K	911.409 ± 0.26	912.535 ± 0.26	913.625 ± 0.26	914.75 ± 0.26	916.4 ± 0.26	918.08 ± 0.26	919.765 ± 0.26	921.436 ± 0.26

CC[N+](CC)(CC)CC.[O-][Cl+3]([O-])([O-])[O-] [tetraethylammonium perchlorate] + CN(C)C=O
mass density [kg/m3], [2]
Details	a1 = 0.02269	a1 = 0.04218	a1 = 0.06274	a1 = 0.08215	a1 = 0.1147	a1 = 0.1455	a1 = 0.1761	a1 = 0.2062
283.15 K	959.351 ± 0.27	960.443 ± 0.27	961.586 ± 0.27	962.663 ± 0.27	964.449 ± 0.27	966.152 ± 0.27	967.825 ± 0.27	969.465 ± 0.27
293.15 K	949.863 ± 0.27	950.975 ± 0.27	952.142 ± 0.27	953.234 ± 0.27	955.047 ± 0.27	956.775 ± 0.27	958.473 ± 0.27	960.139 ± 0.27
298.15 K	945.114 ± 0.27	946.237 ± 0.27	947.409 ± 0.27	948.513 ± 0.27	950.338 ± 0.27	952.082 ± 0.27	953.791 ± 0.27	955.471 ± 0.27
303.15 K	940.349 ± 0.27	941.482 ± 0.27	942.667 ± 0.27	943.781 ± 0.27	945.623 ± 0.27	947.378 ± 0.27	949.101 ± 0.27	950.793 ± 0.27
313.15 K	930.795 ± 0.26	931.951 ± 0.26	933.155 ± 0.26	934.288 ± 0.27	936.165 ± 0.27	937.945 ± 0.27	939.7 ± 0.27	941.419 ± 0.27
323.15 K	921.19 ± 0.26	922.369 ± 0.26	923.599 ± 0.26	924.748 ± 0.26	926.661 ± 0.26	928.473 ± 0.26	930.257 ± 0.26	932.007 ± 0.26
333.15 K	911.533 ± 0.26	912.731 ± 0.26	913.987 ± 0.26	915.156 ± 0.26	917.106 ± 0.26	918.957 ± 0.26	920.766 ± 0.26	922.55 ± 0.26
